Earlier results as cited in patent US20250289851A1, “CYCLIC PEPTIDES FOR DELIVERING THERAPEUTICS” (ENTRADA THERAPEUTICS, INC., priority 2022, published 2025).

Key:
[1] = hydrophobicity value, scale of Eisenberg and Weiss
[2] = hydrophobicity value, scale of Engleman et al.
[3] = hydrophobicity value, scale of Kyte and Doolittle
[4] = hydrophobicity value, scale of Hoop and Woods
[5] = hydrophobicity value, scale of Janin

Amino Acid Hydrophobicity, Eisenberg and Weiss [1]: 0.73 | Amino Acid Hydrophobicity, Engleman et al. [2]: 3.1 | Amino Acid Hydrophobicity, Kyte and Doolittle [3]: 4.5 | Amino Acid Hydrophobicity, Hoop and Woods [4]: −1.8 | Amino Acid Hydrophobicity, Janin [5]: 0.7
Compound: CC[C@H](C)[C@H](N)C(=O)O [Ile, Isoleucine]
